# Test results: patent US6268220A, “Diagnostic method for atherosclerosis” (Washington University, priority 1996, dated 2001)
# “Also recorded” adds a separate entry of the source.
# T1: myeloperoxidase (Homo sapiens, UniProt P05164)
# T1 construct: light and heavy chains, homodimer) with H2O2, chloride and human LDL as substrate
# T1 sequence (P05164 49-745): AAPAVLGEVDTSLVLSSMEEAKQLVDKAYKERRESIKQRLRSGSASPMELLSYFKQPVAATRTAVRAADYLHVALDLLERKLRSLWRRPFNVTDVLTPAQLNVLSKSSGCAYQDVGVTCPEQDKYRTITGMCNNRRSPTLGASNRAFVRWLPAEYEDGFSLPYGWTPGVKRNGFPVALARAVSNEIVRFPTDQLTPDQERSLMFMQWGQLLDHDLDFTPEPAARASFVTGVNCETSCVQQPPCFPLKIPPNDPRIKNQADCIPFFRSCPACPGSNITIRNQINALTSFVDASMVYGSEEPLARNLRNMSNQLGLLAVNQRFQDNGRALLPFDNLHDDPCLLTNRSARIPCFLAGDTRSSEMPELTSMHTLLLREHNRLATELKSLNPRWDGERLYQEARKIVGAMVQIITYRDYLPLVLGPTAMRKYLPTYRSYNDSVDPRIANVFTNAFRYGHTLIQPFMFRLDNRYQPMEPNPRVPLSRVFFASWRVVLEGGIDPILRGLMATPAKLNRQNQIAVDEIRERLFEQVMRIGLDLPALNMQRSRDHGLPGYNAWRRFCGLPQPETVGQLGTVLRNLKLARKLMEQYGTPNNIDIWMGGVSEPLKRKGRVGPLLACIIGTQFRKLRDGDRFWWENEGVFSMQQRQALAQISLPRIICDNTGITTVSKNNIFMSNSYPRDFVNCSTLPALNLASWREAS
# B1: Catalase: a peroxide scavenger (protein, UniProt P00432 2-527, looked up)
# Catalase: ADNRDPASDQMKHWKEQRAAQKPDVLTTGGGNPVGDKLNSLTVGPRGPLLVQDVVFTDEMAHFDRERIPERVVHAKGAGAFGYFEVTHDITRYSKAKVFEHIGKRTPIAVRFSTVAGESGSADTVRDPRGFAVKFYTEDGNWDLVGNNTPIFFIRDALLFPSFIHSQKRNPQTHLKDPDMVWDFWSLRPESLHQVSFLFSDRGIPDGHRHMNGYGSHTFKLVNANGEAVYCKFHYKTDQGIKNLSVEDAARLAHEDPDYGLRDLFNAIATGNYPSWTLYIQVMTFSEAEIFPFNPFDLTKVWPHGDYPLIPVGKLVLNRNPVNYFAEVEQLAFDPSNMPPGIEPSPDKMLQGRLFAYPDTHRHRLGPNYLQIPVNCPYRARVANYQRDGPMCMMDNQGGAPNYYPNSFSAPEHQPSALEHRTHFSGDVQRFNSANDDNVTQVRTFYLKVLNEEQRKRLCENIAGHLKDAQLFIQKKAVKNFSDVHPEYGSRIQALLDKYNEEKPKNAVHTYVQHGSHLSAREKANL
# Tests used:
# [1] = system: apolipoprotein B100 of LDL; experiment: Production of 3-chlorotyrosine in LDL modified by different oxidation systems; type: biochemical, human; conditions: 37° C.; for 3-chlorotyrosine content of LDL exposed to oxidation system: LDL 512 μg protein/ml, pH 7.4, 60 min or 24 h, FIG. 2, result in words
# Description: FIG. 2 show production of 3-chlorotyrosine in LDL modified by different oxidation systems. LDL (512 μg protein/ml) was incubated at 37° C. in phosphate buffered saline (10 mM sodium phosphate, 150 mM NaCl, pH 7.4) alone (Control) or with the indicated oxidation system. The complete myeloperoxidase-H2 O2 --Cl^- system consisted of 20 nM myeloperoxidase and 100 μM H2 O2. HOCl was used at 100 μM. Horseradish peroxidase (10 μg/ml and lactoperoxidase (10 μg/ml) were used with 100 μM H2 O2. LDL was exposed to myeloperoxidase, HOCl, horseradish peroxidase and lactoperoxidase for 60 min.
# All other oxidation reactions were carried out for 24 h. Final concentrations of oxidants were: peroxynitrite, 100 μM; CuSO4, 10 μM; CuSO4 and H2 O2, 100 μM and 2 mM, respectively; FeSO4, 10 μM; hemin, 10 μM; and glucose, 100 mM. LDL oxidation by lipoxygenase was performed in 50 mM borate, 150 mM NaCl supplemented with phospholipase A2 as previously described (45).
# Reaction products were delipidated, acid hydrolyzed, and the 3-chlorotyrosine content of the amino acid hydrolysate determined by stable isotope dilution GC-MS analysis. Values are the mean of duplicate determinations. […] HRP, horseradish peroxidase; MPO, myeloperoxidase-peroxidase.
# The complete system consisted of Buffer B (20 mM Na[PO4 ], pH 7.0, 100 μM DTPA) supplemented with LDL (512 μg protein/ml), myeloperoxidase (MPO; 40 nM), H2 O2 (100 μM) and Cl^- (as NaCl; 100 mM). After a 1 h incubation at 37° C., the 3-chlorotyrosine content was determined by stable isotope dilution GC-MS as described under "Methods." The limit of detection of the assay was <0.1 umol 3-chlorotyrosine per mol L-tyrosine. Values are the mean of duplicate determinations.
# myeloperoxidase = molecular target: T1, myeloperoxidase; experiment: Chlorination of apolipoprotein B100 of LDL by the myeloperoxidase-H2O2-Cl- system (3-chlorotyrosine by GC-MS); type: biochemical; conditions: for 3-Chlorotyrosine/L-Tyrosine: Complete system (LDL 512 μg protein/ml, MPO 40 nM, H2O2 100 μM, Cl- 100 mM) plus additive at printed concentration, 1 h, 37° C., complete system alone 50, detection limit <0.1
# Description: (§1) General Procedures--All glassware was rendered chlorine-demand free (<3% consumption of 1 mM HOCl in a 10 min incubation at 37° C. within a gas-tight vial as monitored by the oxidation of iodide to triiodide) prior to use (12,25,27). […] Myeloperoxidase (donor: hydrogen peroxide, oxidoreductase, EC 1.11.1.7) was isolated (final A430 /A280 ratio of 0.6) as previously described (28,29). Enzyme concentration was determined spectrophotometrically ε430 =[…] cm^-1; ref. 30). Human neutrophils were isolated by buoyant density centrifugation (31). Medium A (Hank's balanced salt solution (magnesium-, calcium-, phenol- and bicarbonate-free; Gibco-BRL, Gaithersburg, Md.), pH 7.2, supplemented with 100 μM diethylenetriamine pentaacetic acid (DTPA) was used for neutrophil isolation and experiments.
# Following the addition of 10 pmol 3-[^13 C6 ]chlorotyrosine and 100 nmol L-[^13 C6 ]tyrosine, delipidated and dialyzed protein (~1-4 mg) suspended in Buffer B was dried under vacuum in a glass reaction vial. Each vial then received 0.5 ml HBr (6 N) containing 1% phenol. […]
# Mass Spectrometric Analysis--n-Propyl, perheptafluorobutyl (HFB) and n-propyl, perpentafluoroproprionyl (PFP) derivatives of amino acids were prepared (38) and analyzed on a Hewlett Packard 5890 Gas Chromatograph interfaced with a Hewlett Packard 5988A Mass Spectrometer equipped with extended mass range. […]
# Amino acids were quantified utilizing stable isotope dilution GC-MS analysis in the negative-ion chemical ionization mode (25,26). 3-Chlorotyrosine was monitored as its n-propyl-per-HFB derivative utilizing selected ion monitoring of the base peak at mass-to-charge ratio (m/z) 451 (M^.- -HFB), another prominent ion at m/z 629 (M^.- -HF), and their isotopically labeled internal standard ions at m/z 457 and 635, respectively.
# L-Tyrosine was monitored as its n-propyl-per-HFB derivative using the base peak at m/z 417 (M^.- -HFB), another major ion at m/z 595 (M^.- -HF), and their labeled internal standard ions at m/z 423 and 601, respectively. […]
# Human neutrophils = experiment: Formation of 3-chlorotyrosine in LDL exposed to activated human phagocytes; type: cell-based; conditions: FIG. 1
# Description: Human neutrophils (1×10^6 /ml) were incubated at 37° C. in Hank's Balanced Salt Solution supplemented with DTPA (100 μM) and LDL (512 μg protein/ml). Neutrophils were activated with phorbol ester (PMA; 200 nM) and maintained in suspensions by intermittent inversion (Complete neutrophil system).
# Following a 60 min incubation, neutrophils were removed by centrifugation. The supernatant was delipidated and dialyzed, ^13 C-labeled internal standards were added, and the samples were then subjected to acid hydrolysis. The content of L-tyrosine and 3-chlorotyrosine in acid hydrolysates were determined by stable isotope dilution GC-MS analysis as described under "Method", below.
# Additions or deletions to the complete system were as indicated. The final concentrations of additions were:
# 3-Chlorotyrosine content of LDL is normalized to the content of the precursor amino acid L-tyrosine. Values are the mean of duplicate determinations.
# as §1
# [2] = PMA-activated human neutrophils 1×10^6/ml, 60 min, 37° C., additive to complete neutrophil system
molecule,measurement,setting,value
"OCl [HOCl, hypochlorous acid]",3-chlorotyrosine content of LDL exposed to oxidation system,[1],resulted in 3-chlorotyrosine formation; also recorded: Significant levels
same,3-Chlorotyrosine/L-Tyrosine,"[1]; LDL + HOCl (100 μM), no enzyme, 1 h",68 umol/mol
[N-]=[N+]=[N-].[Na+] [NaN3],3-Chlorotyrosine/L-Tyrosine,myeloperoxidase,0 umol/mol
same,3-chlorotyrosine production in LDL incubated with activated phagocytes,Human neutrophils; [2],inhibited
"O=S(=O)([O-])[O-].[Cu+2] [copper, CuSO4]",3-chlorotyrosine content of LDL exposed to oxidation system,[1],little change
C[C@H](CCC(=O)O)C[C@H](C)C[C@H](C)C(=O)/C=C(\O)[C@H](C)C[C@H](C)C/C=C/[C@@H](C)[C@@H](O)[C@@H](C)[C@@H](O)C[C@@H]1CC[C@@](C)([C@H]2CC[C@@](C)([C@@H](C)O)O2)O1 [ionomycin],3-chlorotyrosine production in LDL incubated with activated phagocytes,Human neutrophils; ionomycin (1 μM) added together with superoxide dismutase (10 μg/ml),further generation
"O=S(=O)([O-])[O-].[Fe+2] [iron, FeSO4]",3-chlorotyrosine content of LDL exposed to oxidation system,[1],little change
O=NOO [peroxynitrite],3-chlorotyrosine content of LDL exposed to oxidation system,[1],little change
glucose,3-chlorotyrosine content of LDL exposed to oxidation system,[1],little change
horseradish peroxidase,3-chlorotyrosine content of LDL exposed to oxidation system,[1],little change
lactoperoxidase,3-chlorotyrosine content of LDL exposed to oxidation system,[1],little change
superoxide dismutase: catalyzes the conversion of O2.- into H2O2,3-chlorotyrosine production in LDL incubated with activated phagocytes,Human neutrophils; [2],further generation
B1,3-Chlorotyrosine/L-Tyrosine,myeloperoxidase,0 umol/mol
same,Chlorination of apolipoprotein B100 (3-chlorotyrosine production) by myeloperoxidase-H2O2-Cl- system,"myeloperoxidase; additive to complete system, result in words",blocked
same,3-chlorotyrosine production in LDL incubated with activated phagocytes,Human neutrophils; [2],inhibited
